Kd data for two compounds are collected here from PMC11984877, “Carnosic Acid Directly Targets STING C‐Terminal Tail to Improve STING‐Mediated Inflammatory Diseases” (Advanced Science, 2025).

In experiment [1] the target is T1, STING (stimulator of interferon genes) (Homo sapiens, UniProt Q86WV6). Kind of experiment: SPR (Biacore T200); also carnosol-sepharose pull-down. The class given is binding. The arrangement: gene STING1; purified human STING protein (TP308418, OriGene). Background: SPR reads the build-up and loss of mass on a sensor chip optically.
T1 sequence (Q86WV6 whole entry): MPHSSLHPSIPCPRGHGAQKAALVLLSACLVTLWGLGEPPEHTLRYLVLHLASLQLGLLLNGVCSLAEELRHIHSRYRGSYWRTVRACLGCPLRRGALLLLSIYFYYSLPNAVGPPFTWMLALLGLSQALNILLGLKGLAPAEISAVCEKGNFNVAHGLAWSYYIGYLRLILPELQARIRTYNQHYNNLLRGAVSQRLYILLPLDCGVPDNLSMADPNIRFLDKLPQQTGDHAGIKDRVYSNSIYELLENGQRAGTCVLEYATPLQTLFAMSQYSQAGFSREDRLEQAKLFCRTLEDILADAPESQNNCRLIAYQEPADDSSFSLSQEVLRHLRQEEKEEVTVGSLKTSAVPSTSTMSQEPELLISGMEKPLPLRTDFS
Experiment [2] addresses T1, STING (stimulator of interferon genes). Kind of experiment: SPR (Biacore T200); also MST (KD […]) and CA-sepharose pull-down competed by free CA. It counts as binding. Set-up: gene STING1; purified soluble human STING protein (TP308418, OriGene).

On to `CC(C)c1cc2c(c(O)c1O)[C@@]13CCCC(C)(C)[C@@H]1C[C@@H]2OC3=O` [carnosol], for which the Kd – broadly, the constant that tells how readily two partners part at equilibrium – in experiment [1] was 1070 nM.

Compound `CC(C)c1cc2c(c(O)c1O)[C@@]1(C(=O)O)CCCC(C)(C)[C@@H]1CC2` [CA, carnosic acid] returned an equilibrium dissociation constant (Kd) in experiment [2] of 3170 nM.
